Assay results: US20030215817A1, “Modulation of gene expression in formation of fatty atherosclerotic lesions” (priority 2003, published 2003)
Counter-ions that a name gives are not always drawn.

How the values were obtained:
Format in all cases: in vivo, rabbit
REC1_16 (TCGG 195) mRNA = test: TOGA analysis, REC1_16
Method: (§1) To perform the studies, New Zealand male rabbits weighing 2.0-2.5 kg (Charles River, Calco, Italy) were used. The rabbits were divided into three groups and maintained in identical experimental conditions: (1) control group (n=15); rabbits fed a cholesterol-rich diet; (2) lercanidipine-treated group (n=15); rabbits fed a cholesterol-rich diet and also treated with lercanidipine (3 mg/kg/week); and (3) (R)-lercanidipine-treated group (n=5); rabbits fed a cholesterol-rich diet and also treated with the (R)-enantiomer of lercanidipine (3 mg/kg/week). After a 2 week period of subcutaneous, once a week, pretreatment with 3 mg/kg/week of lercanidipine or (R)-lercanidipine, the rabbits received a daily cholesterol supplement for up to 8 weeks or 2 weeks, respectively. In the following examples, use of the term “lercanidipine” refers to the racemic mixture of lercanidipine hydrochloride, whereas “(R)-lercanidipine” refers to the (R)-enantiomer of lercanidipine hydrochloride.
(§2) The mRNA from the above-described groups was isolated from aorta at different time points, resulting in the following mRNA samples: (1) Day 0 Control=no administered cholesterol, no lercanidipine; (2) Day 0+lercanidipine=no administered cholesterol, treatment with lercanipidine (2 weeks; 3 mg/kg/week); (3) Day 14 Control=cholesterol diet for two weeks, no lercanidipine; (4) Day 14+lercanidipine=cholesterol diet for two weeks, treatment with lercanidipine (four weeks; 3 mg/kg/week); (5) Week 8 Control=cholesterol diet for 8 weeks, no lercanidipine; and (6) Week 8+lercanidipine=cholesterol diet for 8 weeks, treatment with lercanidipine (10 weeks; 3 mg/kg/week). In addition, Day 14+(R)-lercanidipine mRNA samples were prepared from rabbits given a cholesterol diet for two weeks and treated with 3 mg/kg/week (R)-lercanidipine for four weeks.
(§3) Aorta mRNAs were prepared in the following manner. First, the aortas from each experimental group were retrieved and shredded using a polytron homogenizer. The samples were further homogenized using a teflon pestle, after which the cellular debris, nuclei, and blood cells were pelleted by centrifugation. The supernatants were extracted twice with phenol-chloroform-isoamyl alcohol and once with chloroform-isoamyl alcohol. RNA was then precipitated from the aqueous phase with ethanol. The poly A+ mRNA was prepared using standard methods of polyA selection known in the art (Schriber et al., J. Mol. Biol., 142:93-116 (1980)).
(§4) The isolated mRNA was analyzed using a method of simultaneous sequence-specific identification of mRNAs known as TOGA, described in U.S. Pat. No. 5,459,037 and U.S. Pat. No. 5,807,680, hereby incorporated herein by reference. In a preferred embodiment, the TOGA method further comprised an additional PCR step performed using a mixture of four 5′ PCR primers and cDNA templates prepared from a population of antisense cRNAs. A final PCR step that used a mixture of 256 5′ PCR primers produced PCR products that were cDNA fragments that corresponded to the 3′-region of the starting mRNA population. The produced PCR products were then identified by: (a) the initial 5′ sequence comprising the sequence remainder of the recognition site of the restriction endonuclease used to cut and isolate the 3′ region plus the sequence of the preferably four parsing bases immediately 3′ to the remainder of the recognition site, preferably the sequence of the entire fragment; and (b) the length of the fragment. […]

[1] = test system: REC1_2 (MspI AATC 108) mRNA; test: TOGA analysis, REC1_2
Method: as §1, §2, §3, §4

[2] = test system: REC1_3 (MspI ACGG 162) mRNA; test: TOGA analysis, REC1_3
Method: as §1, §2, §3, §4

[3] = test system: REC1_8 (MspI CCCG 243) mRNA; test: TOGA analysis, REC1_8
Method: as §1, §2, §3, §4

[4] = test system: REC1_20 (TTAC 210) mRNA, phosphofructo-1-kinase C isozyme; test: TOGA analysis, REC1_20
Method: as §1, §2, §3, §4

REC1_5 (AGTG 184) mRNA = test: TOGA analysis, REC1_5
Method: as §1, §2, §3, §4

[5] = test system: REC1_21 (TTCC 165) mRNA, elastin gene; test: TOGA analysis, REC1_21
Method: as §1, §2, §3, §4

[6] = test system: REC1_6 (MspI ATCC 176) mRNA, ferritin light chain subunit; test: TOGA analysis, REC1_6
Method: as §1, §2, §3, §4

REC1_17 (TCGT 199) mRNA = test: TOGA analysis, REC1_17
Method: as §1, §2, §3, §4

[7] = test system: REC1_18 (MspI TGGT 241) mRNA; test: TOGA analysis, REC1_18
Method: as §1, §2, §3, §4

[8] = test system: REC1_36 (digital address TTAG 155) mRNA; test: TOGA analysis, REC1_36
Method: as §1, §2, §3
The isolated mRNA was analyzed using a method of simultaneous sequence-specific identification of mRNAs known as TOGA, described in U.S. Pat. No. 5,459,037 and U.S. Pat. No. 5,807,680, hereby incorporated herein by reference. In a preferred embodiment, the TOGA method further comprised an additional PCR step performed using a mixture of four 5′ PCR primers and cDNA templates prepared from a population of antisense cRNAs. A final PCR step that used a mixture of 256 5′ PCR primers produced PCR products that were cDNA fragments that corresponded to the 3′-region of the starting mRNA population. The produced PCR products were then identified by: (a) the initial 5′ sequence comprising the sequence remainder of the recognition site of the restriction endonuclease used to cut and isolate the 3′ region plus the sequence of the preferably four parsing bases immediately 3′ to the remainder of the recognition site, preferably the sequence of the entire fragment; and (b) the length of the fragment. These two parameters, sequence and fragment length, were used to compare the obtained PCR products to a database of known polynucleotide sequences. Since the length of the obtained PCR products includes known vector sequences at the 5′ and 3′ ends of the insert, the sequence of the insert provided in the sequence listing is shorter than the fragment length that forms part of the digital address.
The method yields Digital Sequence Tags (DSTs), that is, polynucleotides that are expressed sequence tags of the 3′ end of mRNAs. […]

[9] = TOGA, hypercholesterolemic plus lercanidipine racemate, eight weeks, H2 (normocholesterolemic)=1.0
[10] = REC1_8 CCCG 243, rabbit aorta, 14 days cholesterol
[11] = REC1_20 TTAC 210, rabbit aorta, cholesterol 14 days
[12] = REC1_21 TTCC 165, rabbit aorta, cholesterol 14 days
[13] = REC1_18 TGGT 241, rabbit aorta, cholesterol 14 days
[14] = REC1_36 TTAG 155, rabbit aorta, cholesterol 14 days

## COC(=O)C1=C(C)NC(C)=C(C(=O)OC(C)(C)CN(C)CCC(c2ccccc2)c2ccccc2)C1c1cccc([N+](=O)[O-])c1 (racemic) [lercanidipine, lercanidipine hydrochloride]
REC1_16 (TCGG 195) mRNA; REC1_16 TCGG 195, rabbit aorta, 8 weeks cholesterol, lercanidipine
  level of gene expression (TOGA), 8 Week hypercholesterol + Lercanidipine: 530
REC1_16 (TCGG 195) mRNA; REC1_16 TCGG 195, rabbit aorta, 14 days cholesterol, lercanidipine
  level of gene expression (TOGA), 14 Day hypercholesterol + Lercanidipine: 1052
REC1_16 (TCGG 195) mRNA; REC1_16 TCGG 195, rabbit aorta, no cholesterol, lercanidipine
  level of gene expression (TOGA), Normal + Lercanidipine: 2028
REC1_16 (TCGG 195) mRNA; [9]
  Relative Abundance Rec1_16, TOGA, F: 0.2
[1]; REC1_2, AATC 108, rabbit aorta, 8 weeks cholesterol + lercanidipine
  level of gene expression (TOGA), 8 Week hypercholesterol + Lercanidipine: 1143
[1]; REC1_2, AATC 108, rabbit aorta, 14 days cholesterol + lercanidipine
  level of gene expression (TOGA), 14 Day hypercholesterol + Lercanidipine: 545
[1]; REC1_2, AATC 108, rabbit aorta, no cholesterol, lercanidipine
  level of gene expression (TOGA), Normal + Lercanidipine: 301
[1]; [9]
  Relative Abundance Rec1_2, TOGA, F: 6.5
[2]; REC1_3, ACGG 162, rabbit aorta, 8 weeks cholesterol + lercanidipine
  level of gene expression (TOGA), 8 Week hypercholesterol + Lercanidipine: 65
[2]; REC1_3, ACGG 162, rabbit aorta, 14 days cholesterol + lercanidipine
  level of gene expression (TOGA), 14 Day hypercholesterol + Lercanidipine: 68
[2]; REC1_3, ACGG 162, rabbit aorta, no cholesterol, lercanidipine
  level of gene expression (TOGA), Normal + Lercanidipine: 54
[2]; [9]
  Relative Abundance Rec1_3, TOGA, F: 0.8
[3]; REC1_8 CCCG 243, rabbit aorta, 8 weeks cholesterol
  level of gene expression, 8 Week hypercholesterol + Lercanidipine: 1136
[3]; [10]
  level of gene expression, 14 Day hypercholesterol + Lercanidipine: 373
[3]; REC1_8 CCCG 243, rabbit aorta, no cholesterol
  level of gene expression, Normal + Lercanidipine: 163
[3]; [9]
  Relative Abundance Rec1_8, TOGA, F: 13.1
[4]; REC1_20 TTAC 210, rabbit aorta, cholesterol 8 weeks
  level of gene expression, 8 Week hypercholesterol + Lercanidipine: 260
[4]; [11]
  level of gene expression, 14 Day hypercholesterol + Lercanidipine: 348
[4]; REC1_20 TTAC 210, rabbit aorta, no cholesterol
  level of gene expression, Normal + Lercanidipine: 607
[4]; [9]
  Relative Abundance Rec1_20, TOGA, F: 0.3
REC1_5 (AGTG 184) mRNA; REC1_5, AGTG 184, rabbit aorta, 8 weeks cholesterol + lercanidipine
  level of gene expression (TOGA), 8 Week hypercholesterol + Lercanidipine: 188
REC1_5 (AGTG 184) mRNA; REC1_5, AGTG 184, rabbit aorta, 14 days cholesterol + lercanidipine
  level of gene expression (TOGA), 14 Day hypercholesterol + Lercanidipine: 699
REC1_5 (AGTG 184) mRNA; REC1_5, AGTG 184, rabbit aorta, no cholesterol, lercanidipine
  level of gene expression (TOGA), Normal + Lercanidipine: 1034
REC1_5 (AGTG 184) mRNA; [9]
  Relative Abundance Rec1_5, TOGA, F: 0.2
[5]; REC1_21 TTCC 165, rabbit aorta, cholesterol 8 weeks
  level of gene expression, 8 Week hypercholesterol + Lercanidipine: 486
[5]; [12]
  level of gene expression, 14 Day hypercholesterol + Lercanidipine: 1507
[5]; REC1_21 TTCC 165, rabbit aorta, no cholesterol
  level of gene expression, Normal + Lercanidipine: 2064
[5]; [9]
  Relative Abundance Rec1_21, TOGA, F: 0.2
[6]; REC1_6, ATCC 176, rabbit aorta, 8 weeks cholesterol + lercanidipine
  level of gene expression (TOGA), 8 Week hypercholesterol + Lercanidipine: 1302
[6]; REC1_6, ATCC 176, rabbit aorta, 14 days cholesterol + lercanidipine
  level of gene expression (TOGA), 14 Day hypercholesterol + Lercanidipine: 399
[6]; REC1_6, ATCC 176, rabbit aorta, no cholesterol, lercanidipine
  level of gene expression (TOGA), Normal + Lercanidipine: 120
[6]; [9]
  Relative Abundance Rec1_6, TOGA, F: 8.8
REC1_17 (TCGT 199) mRNA; REC1_17 TCGT 199, rabbit aorta, 8 weeks cholesterol, lercanidipine
  level of gene expression (TOGA), 8 Week hypercholesterol + Lercanidipine: 262
REC1_17 (TCGT 199) mRNA; REC1_17 TCGT 199, rabbit aorta, 14 days cholesterol, lercanidipine
  level of gene expression (TOGA), 14 Day hypercholesterol + Lercanidipine: 713
REC1_17 (TCGT 199) mRNA; REC1_17 TCGT 199, rabbit aorta, no cholesterol, lercanidipine
  level of gene expression (TOGA), Normal + Lercanidipine: 1434
REC1_17 (TCGT 199) mRNA; [9]
  Relative Abundance Rec1_17, TOGA, F: 0.15
[7]; REC1_18 TGGT 241, rabbit aorta, cholesterol 8 weeks
  level of gene expression, 8 Week hypercholesterol + Lercanidipine: 935
[7]; [13]
  level of gene expression, 14 Day hypercholesterol + Lercanidipine: 112
[7]; REC1_18 TGGT 241, rabbit aorta, no cholesterol
  level of gene expression, Normal + Lercanidipine: 316
[7]; [9]
  Relative Abundance Rec1_18, TOGA, F: 5.0
[8]; REC1_36 TTAG 155, rabbit aorta, cholesterol 8 weeks
  level of gene expression, 8 Week hypercholesterol + Lercanidipine: 400
[8]; [14]
  level of gene expression, 14 Day hypercholesterol + Lercanidipine: 683
[8]; REC1_36 TTAG 155, rabbit aorta, no cholesterol
  level of gene expression, Normal + Lercanidipine: 186
[8]; [9]
  Relative Abundance Rec1_36, TOGA, F: 0.5
[8]; aorta at day 14 of cholesterol administration, 3 mg/kg/week for 4 weeks
  level of gene expression of REC1_36 (TOGA): 683
[8]; aorta at week 8 of cholesterol administration, 3 mg/kg/week for 10 weeks
  level of gene expression of REC1_36 (TOGA): 400

## COC(=O)C1=C(C)NC(C)=C(C(=O)OC(C)(C)CN(C)CCC(c2ccccc2)c2ccccc2)[C@@H]1c1cccc([N+](=O)[O-])c1 [Lercanidipine (R)]
REC1_16 (TCGG 195) mRNA; REC1_16 TCGG 195, rabbit aorta, 14 days cholesterol, (R)-enantiomer
  level of gene expression (TOGA), 14 Day hypercholesterol + Lercanidipine (R): 1554
[1]; REC1_2, AATC 108, rabbit aorta, 14 days cholesterol + (R)-enantiomer
  level of gene expression (TOGA), 14 Day hypercholesterol + Lercanidipine (R): 1250
[2]; REC1_3, ACGG 162, rabbit aorta, 14 days cholesterol + (R)-enantiomer
  level of gene expression (TOGA), 14 Day hypercholesterol + Lercanidipine (R): 197
[3]; [10]
  level of gene expression, 14 Day hypercholesterol + Lercanidipine (R): 539
[4]; [11]
  level of gene expression, 14 Day hypercholesterol + Lercanidipine (R): 669
REC1_5 (AGTG 184) mRNA; REC1_5, AGTG 184, rabbit aorta, 14 days cholesterol + (R)-enantiomer
  level of gene expression (TOGA), 14 Day hypercholesterol + Lercanidipine (R): 643
[5]; [12]
  level of gene expression, 14 Day hypercholesterol + Lercanidipine (R): 1574
[6]; REC1_6, ATCC 176, rabbit aorta, 14 days cholesterol + (R)-enantiomer
  level of gene expression (TOGA), 14 Day hypercholesterol + Lercanidipine (R): 365
REC1_17 (TCGT 199) mRNA; REC1_17 TCGT 199, rabbit aorta, 14 days cholesterol, (R)-enantiomer
  level of gene expression (TOGA), 14 Day hypercholesterol + Lercanidipine (R): 1117
[7]; [13]
  level of gene expression, 14 Day hypercholesterol + Lercanidipine (R): 330
[8]; [14]
  level of gene expression, 14 Day hypercholesterol + Lercanidipine (R): 500
